Source: US9719110B2, “Method of increasing production of amorpha-4,11-diene and method of increasing production of natural rubber” (SUMITOMO RUBBER INDUSTRIES, LTD., priority 2014, dated 2017)

What was measured:
35S:ADS A. thaliana = test: amorpha-4,11-diene production in 35S:ADS A. thaliana seedlings cultured in MS liquid medium with inhibitor (GC-MS); format: in vivo, Arabidopsis thaliana
Description: The following experiment was performed to confirm that the attachment of the enzyme inhibitor squalestatin (squalene synthase inhibitor) had the effect of increasing production of amorpha-4,11-diene on 35S:ADS A. thaliana, which is an Arabidopsis thaliana into which had been introduced a gene encoding amorphadiene synthase (ADS).
The 35S:ADS A. thaliana is Arabidopsis thaliana in which a gene encoding ADS derived from Artemisia annua is overexpressed. It is properly managed as 433 7-5 line in Cell Technology Laboratory, Division of Advanced Science and Biotechnology, Graduate School of Engineering, Osaka University.
In order to sterilize 35S:ADS A. thaliana seeds, the seeds were immersed in a seed sterilization water (0.25% sodium hypochlorite solution, 1% SDS) for 20 minutes and then washed with sterilized water four times.
The seeds were plated on MS agar medium (Murashige and Skoog medium, including 4.4 g/L vitamins, 10 g/L sucrose, and 10 g/L agar) set to a pH of 5.8.
The plating was followed by vernalization for two or more days at 4° C. Thereafter, the seeds were cultured at 23° C. under long day conditions (16 hours light/8 hours dark) for seven days.
The resulting Arabidopsis thaliana seedlings were transferred to MS liquid media supplemented with squalestatin (SQS inhibitor) at squalestatin concentrations of 0, 1, 3, 5, 10, and 15 μmol/L, followed by further culturing for seven days with shaking at 23° C. under long day conditions (16 hours light/8 hours dark).
Amorpha-4,11-diene was extracted from the Arabidopsis thaliana plants by the following procedure. About 100 mg (wet weight) of Arabidopsis thaliana plants was placed in a mortar, to which was added about 5 mL of n-hexane. After 100 μL of a n-tetradecane solution was added as an internal standard, the mixture was subjected to grinding and extraction. The extract was once recovered, and the residue was combined with another 5 mL of fresh n-hexane, followed by grinding and extraction. The extract from the second extraction was combined with that from the first extraction. This cycle of operation was repeated twice. The resulting extract was passed through an anhydrous sodium sulfate column.
The eluate from the column was concentrated under reduced pressure to about 1 mL using a rotary evaporator, and then dried to a solid with a nitrogen blowing concentrator.
The dried solid was finally combined with 1 mL of n-hexane to prepare a sample for GC-MS analysis.
The GC-MS analysis was performed with a JMS-SUN200 mass spectrometer (JEOL) and a gas chromatograph (6890 series GC system: Agilent Technologies). […]
Instead of squalene synthase (SQS), squalene epoxidase (SQE), which is located one step downstream of SQS, was inhibited, and then the effect of increasing production of amorpha-4,11-diene was evaluated. […]

Taraxacum koksaghyz = test: natural rubber production in Taraxacum koksaghyz sprayed with inhibitor solution (rubber dry weight); format: in vivo
Description: The following experiment was performed to confirm that the attachment of the enzyme inhibitor squalestatin (squalene synthase inhibitor) to the rubber-producing plant Taraxacum koksaghyz had the effect of increasing production of natural rubber.
Taraxacum koksaghyz seeds were vernalized for two or more days at 4° C. and then planted in soil.
After planted in soil, the seeds were grown at 25° C. under 12 h light/12 h dark conditions for five months.
Squalestatin was dissolved at a concentration of 10 μmol/L in 0.1% dimethyl sulfoxide (DMSO) to prepare a squalestatin solution. Two of the thus grown Taraxacum koksaghyz plants were each sprayed with 50 mL of the squalestatin solution once a day for four days using a spray.
As a comparative example, another two Taraxacum koksaghyz individuals were sprayed with 50 mL of a 0.1% dimethyl sulfoxide (DMSO) solution without squalestatin once a day for four days using a spray.
On day 5 after initiation of the treatment, latex was recovered from the Taraxacum koksaghyz roots and immersed in ethanol for five hours to solidify natural rubber.
The solidified natural rubber was dried at room temperature for three days. Thereafter, the dry weight was measured, and the results were compared.

Row | Compound | amount of amorpha-4,11-diene inside Arabidopsis thaliana plants (35S:ADS A. thaliana; treatment with 3 μmol/L or more of squalestatin, seven-day shake culture, FIG. 2) | Rubber dry weight (Taraxacum koksaghyz; 10 μmol/L in 0.1% DMSO, 50 mL sprayed once a day for four days, latex from roots on day 5, average of two individuals) [mg] | increase in amount of natural rubber recovered versus plants not treated with squalestatin (Taraxacum koksaghyz; 10 μmol/L, sprayed once a day for four days) [times] | amorpha-4,11-diene amount relative to treatment with the same concentration of squalestatin (35S:ADS A. thaliana; 5 μmol/L) | increase in the production of amorpha-4,11-diene (35S:ADS A. thaliana; terbinafine 1, 3 and 5 μmol/L, same procedure as Example 1) | accumulation of amorpha-4,11-diene (35S:ADS A. thaliana; treatment with 5 μmol/L)
1 | C=C(CC[C@]12O[C@H](C(=O)O)[C@@](O)(C(=O)O)[C@](C(=O)O)(O1)[C@H](OC(=O)/C=C/[C@@H](C)C[C@@H](C)CC)[C@H]2O)[C@@H](OC(C)=O)[C@H](C)Cc1ccccc1 [squalestatin] | increase | 4.2 | 2.5 |  |  | 
2 | CN(C/C=C/C#CC(C)(C)C)Cc1cccc2ccccc12 [terbinafine] |  |  |  | a tenth or less | very little increase | about 0.004 μg gFW^-1
